For one compound, Activity results are on record in ChEMBL document CHEMBL1629570, “Posaconazole mono- or combination therapy for treatment of murine zygomycosis” (Antimicrob Agents Chemother, 2009).

What all share (format): functional, organism-based
Experiment [1] has as its system Rhizopus arrhizus. Briefly: Antifungal activity against Rhizopus oryzae 99-880 infected in neutropenic mouse assessed as reduction of fungal burden in brain at 60 mg/kg/day, po administered 8 hrs post infection for 3 days.
Experiment [2] deals with Rhizopus arrhizus. Put plainly: Antifungal activity against Rhizopus oryzae 99-880 infected in neutropenic BALB/c mouse assessed as improved time to death at 60 mg/kg/day, po administered 24 hrs post infection for 4 days.
The subject of experiment [3] is Rhizopus arrhizus. Briefly: Antifungal activity against Rhizopus oryzae 99-880 infected in diabetic ketoacidotic mouse assessed as mouse survival at 30 mg/kg/day, po administered 24 hrs post infection for 4 days.
The test system of experiment [4] is Rhizopus arrhizus. Put plainly: Antifungal activity against Rhizopus oryzae 99-880 infected in diabetic ketoacidotic mouse assessed as mouse survival at 60 mg/kg/day, po administered 24 hrs post infection for 4 days.
The subject of experiment [5] is Rhizopus arrhizus. Briefly: Antifungal activity against Rhizopus oryzae 99-880 infected in diabetic ketoacidotic BALB/c mouse assessed as improved time to death at 60 mg/kg/day, po administered 24 hrs post infection for 4 days.
For experiment [6], the system named is Rhizopus arrhizus. Briefly: Antifungal activity against Rhizopus oryzae 99-880 infected in diabetic ketoacidotic mouse assessed as reduction of fungal burden in kidneys at 60 mg/kg/day, po administered 8 hrs post infection for 3 days. The following applies: Kidney.
The test system of experiment [7] is Rhizopus arrhizus. Put plainly: Antifungal activity against Rhizopus oryzae 99-880 infected in diabetic ketoacidotic BALB/c mouse assessed as improved time to death at 30 mg/kg/day, po administered 24 hrs post infection for 4 days.
The subject of experiment [8] is Rhizopus arrhizus. Put plainly: Antifungal activity against Rhizopus oryzae 99-880 infected in neutropenic mouse assessed as reduction of fungal burden in kidneys at 60 mg/kg/day, po administered 8 hrs post infection for 3 days. The following applies: Kidney.
Experiment [9] concerns Rhizopus arrhizus. Briefly: Antifungal activity against Rhizopus oryzae 99-880 infected in diabetic ketoacidotic BALB/c mouse assessed as improved time to death at 10 mg/kg/day, po administered 24 hrs post infection for 4 days.
Experiment [10] concerns Rhizopus arrhizus. Put plainly: Antifungal activity against Rhizopus oryzae 99-880 infected in diabetic ketoacidotic mouse assessed as reduction of fungal burden in brain at 60 mg/kg/day, po administered 8 hrs post infection for 3 days.
For experiment [11], the system named is Rhizopus arrhizus. Put plainly: Antifungal activity against Rhizopus oryzae 99-880 infected in diabetic ketoacidotic mouse assessed as mouse survival at 10 mg/kg/day, po administered 24 hrs post infection for 4 days.

Molecules are shown by their SMILES. Active and inactive are the calls of the source. The calls are words filed in the database; no cut-off is given here.

Consider `CC[C@@H]([C@H](C)O)n1ncn(-c2ccc(N3CCN(c4ccc(OC[C@@H]5CO[C@@](Cn6cncn6)(c6ccc(F)cc6F)C5)cc4)CC3)cc2)c1=O`, for which the outcome in experiment [1], in experiment [2], in [3], in experiment [4], in experiment [6] and in experiment [7] was inactive. Further, the outcome in experiment [8], in experiment [9], in experiment [10] and in [11] was inactive. For the same compound, in [5], the outcome was Active.
